Read-outs that look alike come from different tables or passages of the source.
Target: T1, NR2B subunit of NMDA receptor (Rattus norvegicus, UniProt Q00960)
T1 construct: gene Grin2b; native NMDA receptor in rat cerebral cortex membranes; with NR1
Format: binding

T1 sequence (Q00960 27-1482, other chains not shown): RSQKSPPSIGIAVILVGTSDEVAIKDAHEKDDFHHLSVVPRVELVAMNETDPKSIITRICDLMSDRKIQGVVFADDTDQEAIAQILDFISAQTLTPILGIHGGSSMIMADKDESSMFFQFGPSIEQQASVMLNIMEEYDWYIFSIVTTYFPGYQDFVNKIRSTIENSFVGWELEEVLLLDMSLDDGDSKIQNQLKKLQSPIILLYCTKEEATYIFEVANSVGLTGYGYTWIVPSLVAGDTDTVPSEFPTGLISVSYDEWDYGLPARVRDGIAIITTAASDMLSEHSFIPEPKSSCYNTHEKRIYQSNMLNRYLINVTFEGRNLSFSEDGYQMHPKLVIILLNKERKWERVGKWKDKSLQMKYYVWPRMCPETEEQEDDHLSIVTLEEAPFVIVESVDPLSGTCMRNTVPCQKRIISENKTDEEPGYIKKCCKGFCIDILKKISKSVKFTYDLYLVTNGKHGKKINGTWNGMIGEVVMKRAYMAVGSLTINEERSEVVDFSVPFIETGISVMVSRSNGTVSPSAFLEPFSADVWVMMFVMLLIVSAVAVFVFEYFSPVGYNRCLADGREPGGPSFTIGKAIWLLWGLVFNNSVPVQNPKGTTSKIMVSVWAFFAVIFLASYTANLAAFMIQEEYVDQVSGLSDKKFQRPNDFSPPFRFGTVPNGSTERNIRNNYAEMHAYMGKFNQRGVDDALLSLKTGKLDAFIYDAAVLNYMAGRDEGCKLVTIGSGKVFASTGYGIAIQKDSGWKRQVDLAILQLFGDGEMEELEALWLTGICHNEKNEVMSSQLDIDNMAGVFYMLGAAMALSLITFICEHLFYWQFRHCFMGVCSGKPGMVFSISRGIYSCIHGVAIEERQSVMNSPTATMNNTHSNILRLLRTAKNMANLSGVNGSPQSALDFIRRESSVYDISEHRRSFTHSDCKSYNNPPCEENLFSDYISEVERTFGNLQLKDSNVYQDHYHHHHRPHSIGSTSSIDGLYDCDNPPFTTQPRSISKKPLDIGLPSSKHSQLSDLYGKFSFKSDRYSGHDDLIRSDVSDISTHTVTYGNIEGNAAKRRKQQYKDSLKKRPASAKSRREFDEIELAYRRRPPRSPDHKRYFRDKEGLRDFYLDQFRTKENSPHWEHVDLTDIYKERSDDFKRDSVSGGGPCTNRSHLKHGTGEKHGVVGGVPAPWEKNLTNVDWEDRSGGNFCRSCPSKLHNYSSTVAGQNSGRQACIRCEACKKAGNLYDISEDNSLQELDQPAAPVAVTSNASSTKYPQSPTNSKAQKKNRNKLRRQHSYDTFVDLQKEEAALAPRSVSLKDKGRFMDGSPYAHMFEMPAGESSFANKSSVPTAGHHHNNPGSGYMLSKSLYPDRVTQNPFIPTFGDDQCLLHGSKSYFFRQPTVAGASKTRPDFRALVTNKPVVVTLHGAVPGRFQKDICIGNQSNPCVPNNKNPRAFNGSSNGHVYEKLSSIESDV

| Ki (read-out: Ki) | Compound | Ki |
| --- | --- | --- |
|  | N=C(N)c1ccc2cc(OC(=O)c3ccc(N=C(N)N)cc3)ccc2c1 [nafamostat] | 4.2 µM |
| 27.7 µM | N=C(N)c1ccc2cc(OC(=O)c3ccc(NC4=NCCN4)cc3)ccc2c1 [sepimostat, 6-amidino-2-naphthyl[4-(4,5-dihydro-1H-imidazol-2-yl)amino] benzoate dimethane sulfonate] |  |

— publication PMC6938488, “Nafamostat and sepimostat identified as novel neuroprotective agents via NR2B N-methyl-D-aspartate receptor antagonism using a rat retinal excitotoxicity model” (Scientific Reports, 2019)
